Assay results: patent publication US9708255B2, “(bis)urea and (bis)thiourea compounds as epigenic modulators of lysine-specific demethylase 1 and methods of treating disorders” (priority 2009, dated 2017)

How the values were obtained:
[1] = tested on: global H3K4me2; settings: P19 cell line; cited from earlier work
[2] = molecular target: recombinant LSD1/CoRest complex (Homo sapiens, UniProt O60341); settings: cited from earlier work
[3] = tested on: SFRP2 mRNA; assay: Re-expression of SFRP2 mRNA by qPCR in Calu-6 cells; assay type: cell-based, human; settings: Calu-6, 24 hours; for dose dependence of SFRP2 expression increase: 5 vs 10 μM
From the text: (§1) The ability of compounds 25-27 to induce the re-expression of aberrantly silenced tumor suppressor genes in vitro was next measured using the Calu-6 human lung carcinoma cell line. The tumor suppressor genes SFRP2 and GATA4 were chosen because they are known to be under expressed in human lung cancer, and because they are thought to play a role in tumorigenesis when silenced. Thus, the genes coding for these proteins are well-documented LSD1 targets. […]. […]. The increase in GATA4 mRNA caused by […] 27 is reproducible, but is not statistically significant (P>0.05).
(§2) RNA was extracted using TRIzol reagents (Invitrogen, Carlsbad, Calif.). First-strand cDNA was synthesized using SuperScript III reverse transcriptase with an oligo(dT) primer (Invitrogen). qPCR was performed using the following primers: SFRP2 sense, 5′AAGCCTGCAAAAATAAAAATGATG; SFRP2 antisense, 5′TGTAAATGGTCTTGCTCTTGGTCT (annealing at 57.4° C.); GATA4 sense, 5′GGCCGCCCGACACCCCAATCT; GATA4 antisense, 5′ ATAGTGACCCGTCCCATCTCG (annealing at 64° C.). qPCR was performed in a MyiQ single color real-time PCR machine (Bio-Rad, Hercules, Calif.) with GAPDH as an internal control.

[4] = tested on: GATA4 mRNA; assay: Re-expression of GATA4 mRNA by qPCR in Calu-6 cells; assay type: cell-based, human; settings: Calu-6, 24 hours; for effect on GATA4 levels: 5 and 10 μM
From the text: as §1, §2

[5] = tested on: global H3K4me1; assay: Global H3K4me1 level by quantitative Western blot in Calu-6 cells; assay type: cell-based, human; settings: Calu-6, 10 μM
Method: (§3) FIG. 2. Effect of compounds 25-27 on the expression of global H3K4me1 and H3K4me2. […] Proliferating cell nuclear antigen (PCNA) was used as a loading control. Shown are Western blot images from a single representative experiment performed in triplicate. Relative protein expression levels were determined by quantitative Western analysis using the Odyssey infrared detection system shown as bar graphs. The results represent the mean of three treatments ±SD. The protein expression level for control samples was set to a value of 1.
(§4) The ability of the target (bis)ureas and (bis)thioureas to inhibit LSD1 was determined in an assay procedure utilizing the recombinant human enzyme. Expression and purification of LSD1 were conducted as previously reported. Enzymatic activity of LSD1 in the presence of target compounds was determined using luminol-dependent chemiluminescence to measure the production of H2O2, as previously described. The results of these experiments are summarized in Table 1, and graphically in FIG. 1. […] Subsequent experiments were conducted in the Calu-6 human anaplastic non-small cell lung carcinoma line because it has a highly reproducible response to epigenetic modulation, and because it is known that various tumor suppressor genes are silenced in this line. In order for synthetic analogues to be effective at the cellular level, any observed decreases in cellular LSD1 activity should be accompanied by an increase in global H3K4me1 and H3K4me2 content. […] The reduction in H3K4me2 and corresponding increase in H3K4me1 by 26 at both 24 and 48 hours cannot be readily explained, and is the subject of continuing investigation.
(§5) Cytoplasmic and nuclear fractions were prepared for Western blot analysis using the NE-PER™ Nuclear and Cytoplasmic Extraction Kit (Pierce, Rockford, Ill.). Primary antibodies against H3K4me2 were from Millipore. The pCNA monoclonal antibody was purchased from Oncogene Research Products (Cambridge, Mass.). Dye-conjugated secondary antibodies were used for quantification of Western blot results using the Odyssey Infrared Detection system and software (LI-COR Biosciences, Lincoln, Nebr.).

[6] = tested on: global H3K4me2; assay: Global H3K4me2 level by quantitative Western blot in Calu-6 cells; assay type: cell-based, human; settings: Calu-6, 10 μM
Method: as §3, §4, §5

[7] = tested on: global H3K4me2; assay: Global H3K4me2 in HCT116 human colon tumor cells; assay type: cell-based; settings: HCT116 human colon tumor cells (data not shown)
[8] = molecular target: recombinant human LSD1 (Homo sapiens, UniProt O60341); assay: LSD1 demethylase assay, luminol-dependent chemiluminescence (H2O2 production); settings: read-out: % LSD1 activity remaining, treatment with each analogue at 10 μM
Method: Percent of LSD1 activity remaining was determined following 24-hour treatment with 10 mM of each test compound as determined by the luminol-dependent chemiluminescence method.
The ability of the target (bis)ureas and (bis)thioureas to inhibit LSD1 was determined in an assay procedure utilizing the recombinant human enzyme. Expression and purification of LSD1 were conducted as previously reported. Enzymatic activity of LSD1 in the presence of target compounds was determined using luminol-dependent chemiluminescence to measure the production of H2O2, as previously described. […] Full-length human LSD1 cDNA was subcloned into the pET15b bacterial expression vector (Novagen, Madison, Wis.) in frame with an N-terminal 6×HIS-tag and transformed into the BL21(DE3) strain of Escherichia coli. Following selection, expression and purification of recombinant LSD1 protein were performed as previously described. Briefly, expression of LSD1-HIS protein was induced by 1 mM IPTG for 6 h at 25° C. The HIS-tagged protein was purified using Ni-NTA affinity purification resin and column as recommended by the manufacturer (Qiagen, Valencia, Calif.). Bound protein was eluted by imidazole and the eluate was dialyzed in PBS at 4° C. […] The integral values were calibrated against standards containing known concentrations of H2O2, and the activities expressed as pmols H2O2/mg protein/min. […]

NNCCc1ccccc1 [phenelzine]
global levels of H3K4me2 [1]: increase
nucleosomal demethylation [2]: inactivate

S=C(NCCCNCCCCNCCCNC(=S)NCC(c1ccccc1)c1ccccc1)NCC(c1ccccc1)c1ccccc1 [Compound 26, 1,12-bis-{3-[1-(2,2-diphenylethyl)thioureado]}-4,9-diazadodecane]
dose dependence of SFRP2 expression increase [3]: same level
effect on GATA4 levels [4]: did not produce significant increases
global H3K4me1 level ([5]; 24 hours): significant increase
global H3K4me1 level ([5]; 48 hours): increase
global H3K4me2 level ([6]; 24 hours): decreased
global H3K4me2 level ([6]; 48 hours): reduction

S=C(NCCCNCCCCCCCNCCCNC(=S)NCC(c1ccccc1)c1ccccc1)NCC(c1ccccc1)c1ccccc1 [Compound 25, 1,15-bis-{3-[1-(2,2-diphenylethyl)thioureado]}-4,12-diazapentadecane]
dose dependence of SFRP2 expression increase [3]: dose dependent
effect on GATA4 levels [4]: did not produce significant increases
global H3K4me1 level ([5]; 24 hours): significant increases
global H3K4me1 level ([5]; 48 hours): most dramatic increases
increase in global H3K4me2 [7]: 17.4 fold
global H3K4me2 level ([6]; 24 hours): significant increases
global H3K4me2 level ([6]; 48 hours): most dramatic increases

N[C@@H]1C[C@H]1c1ccccc1 (racemic) [tranylcypromine]
global levels of H3K4me2 [1]: increase

S=C(NCCCNCCCNCCCNC(=S)NCCC(c1ccccc1)c1ccccc1)NCCC(c1ccccc1)c1ccccc1 [Compound 20, 1,11-bis-{3-[1-(3,3-diphenylpropyl)thioureado]}-4,8-diazaundecane]
remaining activity at 10 µM [8]: 92.2%

S=C(NCCCNCCCNCCCNC(=S)NCC(c1ccccc1)c1ccccc1)NCC(c1ccccc1)c1ccccc1 [Compound 27, 1,11-bis-{3-[1-(2,2-diphenylethyl)thioureado]}-4,8-diazaundecane]
increase in SFRP2 expression ([3]; 10 mM (so in the source)): 4.8 fold
dose dependence of SFRP2 expression increase [3]: dose dependent
effect on GATA4 mRNA ([4]; 5 μM): no significant effect
increase in GATA4 mRNA ([4]; 10 μM (b97 prints 10 mM)): 1.3 fold
global H3K4me1 level ([5]; 24 hours): significant increases
global H3K4me2 level ([6]; 24 hours): significant increases

O=C(NCCCNCCCCNCCCNC(=O)NC(=O)N(c1ccccc1)c1ccccc1)NC(=O)N(c1ccccc1)c1ccccc1 [Compound 31, 1,12-bis-{5-[1-(N,N-diphenyl)carbamyl]ureado}-4,9-diazadodecane]
remaining activity at 10 µM [8]: 26.1%
